For 16 compounds, IC50 and Ki results are on record in ChEMBL document CHEMBL1909046, “DrugMatrix in vitro pharmacology data”.

The target in series [1] is Platelet-activating factor receptor (Homo sapiens, UniProt P25105). It is filed as tissue-based. Further: in other assays of this panel Not Active means under 50% inhibition at 10 µM.
Series [2] can be described thus: DRUGMATRIX: GABAA, Flunitrazepam, Central radioligand binding (ligand: [3H] Flunitrazepam). The class given is cell membranes, Rattus norvegicus, Wistar, Brain, Membrane. To be noted: Not Active = under 50% inhibition at 10 µM.
The target in a further series is Estrogen receptor beta (Homo sapiens, UniProt Q92731). The note with it: sf9. Further: in other assays of this panel Not Active means under 50% inhibition at 10 µM.
The target of another series is Vasopressin V1a receptor (Homo sapiens, UniProt P37288). It is filed as cell membranes, Membrane. To be noted: hek293. Further: in other assays of this panel Not Active means under 50% inhibition at 10 µM.
Series [3] deals with Mitogen-activated protein kinase 14 (Homo sapiens, UniProt Q16539). Set-up: species or system Escherichia coli.
Series [4] deals with Sodium-dependent noradrenaline transporter (Homo sapiens, UniProt P23975). Description: DRUGMATRIX: Norepinephrine Transporter radioligand binding (ligand: [125I] RTI-55). It is filed as cell membranes, MDCK, Membrane. To be noted: Not Active = under 50% inhibition at 10 µM.
The next series concerns the target Cytochrome P450 2D6 (Homo sapiens, UniProt P10635). The note with it: bti-tn-5b1-4. Further: in other assays of this panel Not Active means under 50% inhibition at 10 µM.
The target of series [5] is T1, 3-hydroxy-3-methylglutaryl-coenzyme A reductase (Homo sapiens, UniProt P04035).
T1 sequence (P04035 whole entry): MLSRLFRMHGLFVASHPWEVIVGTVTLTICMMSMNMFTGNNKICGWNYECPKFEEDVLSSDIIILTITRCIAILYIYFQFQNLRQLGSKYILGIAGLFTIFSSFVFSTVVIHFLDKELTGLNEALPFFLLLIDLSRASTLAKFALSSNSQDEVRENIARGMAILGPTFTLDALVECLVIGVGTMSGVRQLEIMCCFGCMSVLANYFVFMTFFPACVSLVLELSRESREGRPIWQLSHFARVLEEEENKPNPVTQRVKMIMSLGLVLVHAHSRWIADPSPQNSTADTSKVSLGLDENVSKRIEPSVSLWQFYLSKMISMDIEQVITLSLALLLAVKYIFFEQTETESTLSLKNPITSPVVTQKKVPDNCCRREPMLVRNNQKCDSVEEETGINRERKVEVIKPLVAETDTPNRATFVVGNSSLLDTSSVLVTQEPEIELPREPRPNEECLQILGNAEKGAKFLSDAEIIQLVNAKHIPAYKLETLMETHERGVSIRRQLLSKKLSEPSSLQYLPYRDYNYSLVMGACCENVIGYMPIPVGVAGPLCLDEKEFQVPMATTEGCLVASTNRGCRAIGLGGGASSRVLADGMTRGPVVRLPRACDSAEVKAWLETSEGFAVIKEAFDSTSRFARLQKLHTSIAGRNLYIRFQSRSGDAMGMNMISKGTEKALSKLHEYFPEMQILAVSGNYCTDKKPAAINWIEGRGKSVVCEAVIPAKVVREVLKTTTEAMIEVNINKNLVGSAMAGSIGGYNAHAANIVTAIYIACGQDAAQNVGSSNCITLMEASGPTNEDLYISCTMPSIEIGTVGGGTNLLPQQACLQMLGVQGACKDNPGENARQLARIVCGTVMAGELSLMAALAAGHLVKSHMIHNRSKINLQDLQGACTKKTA
Set-up: species or system Escherichia coli.

Chain of Platelet-activating factor receptor (P25105 whole entry): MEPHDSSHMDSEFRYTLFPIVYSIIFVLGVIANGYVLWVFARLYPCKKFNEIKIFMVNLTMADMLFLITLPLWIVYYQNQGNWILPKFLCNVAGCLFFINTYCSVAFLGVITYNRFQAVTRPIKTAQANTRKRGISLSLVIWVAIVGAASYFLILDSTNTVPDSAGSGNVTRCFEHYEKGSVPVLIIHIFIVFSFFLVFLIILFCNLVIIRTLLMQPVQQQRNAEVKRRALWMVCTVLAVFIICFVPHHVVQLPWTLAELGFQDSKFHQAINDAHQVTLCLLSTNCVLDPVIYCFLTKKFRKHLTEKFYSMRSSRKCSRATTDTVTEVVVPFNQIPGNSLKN
Chain of Vasopressin V1a receptor (P37288 whole entry): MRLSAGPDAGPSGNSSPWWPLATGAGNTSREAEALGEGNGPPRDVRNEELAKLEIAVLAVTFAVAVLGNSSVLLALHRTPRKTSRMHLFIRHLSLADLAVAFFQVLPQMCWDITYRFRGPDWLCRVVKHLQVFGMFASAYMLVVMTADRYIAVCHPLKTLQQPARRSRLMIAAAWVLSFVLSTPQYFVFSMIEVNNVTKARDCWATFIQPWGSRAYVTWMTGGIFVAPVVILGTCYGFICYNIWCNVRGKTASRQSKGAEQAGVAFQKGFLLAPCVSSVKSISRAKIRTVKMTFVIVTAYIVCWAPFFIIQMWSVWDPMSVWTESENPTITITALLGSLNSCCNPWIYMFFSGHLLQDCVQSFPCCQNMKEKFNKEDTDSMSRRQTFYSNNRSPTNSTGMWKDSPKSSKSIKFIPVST
Chain of Mitogen-activated protein kinase 14 (Q16539 whole entry): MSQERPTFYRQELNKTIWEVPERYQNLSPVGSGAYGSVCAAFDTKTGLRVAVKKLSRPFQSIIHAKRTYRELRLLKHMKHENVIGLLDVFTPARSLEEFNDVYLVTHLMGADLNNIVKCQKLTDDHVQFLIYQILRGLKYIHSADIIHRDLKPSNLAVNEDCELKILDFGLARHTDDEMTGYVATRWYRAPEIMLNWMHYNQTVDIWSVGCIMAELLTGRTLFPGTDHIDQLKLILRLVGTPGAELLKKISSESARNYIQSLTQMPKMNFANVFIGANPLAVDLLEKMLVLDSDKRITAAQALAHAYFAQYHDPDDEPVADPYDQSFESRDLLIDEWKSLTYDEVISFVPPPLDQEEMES
Chain of Cytochrome P450 2D6 (P10635 whole entry): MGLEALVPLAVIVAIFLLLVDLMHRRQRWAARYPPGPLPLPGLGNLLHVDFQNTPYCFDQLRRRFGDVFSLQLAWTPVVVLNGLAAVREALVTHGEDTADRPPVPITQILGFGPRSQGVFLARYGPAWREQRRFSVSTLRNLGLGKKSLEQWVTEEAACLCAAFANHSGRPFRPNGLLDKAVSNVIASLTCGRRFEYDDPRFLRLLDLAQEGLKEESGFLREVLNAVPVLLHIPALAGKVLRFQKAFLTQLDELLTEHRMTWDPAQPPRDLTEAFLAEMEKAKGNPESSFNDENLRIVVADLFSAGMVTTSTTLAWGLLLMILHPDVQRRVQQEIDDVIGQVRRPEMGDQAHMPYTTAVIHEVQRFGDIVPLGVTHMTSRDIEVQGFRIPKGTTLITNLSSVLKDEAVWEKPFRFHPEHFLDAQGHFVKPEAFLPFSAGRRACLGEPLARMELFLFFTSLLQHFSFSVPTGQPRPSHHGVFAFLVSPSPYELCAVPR
Chain of Estrogen receptor beta (Q92731 whole entry): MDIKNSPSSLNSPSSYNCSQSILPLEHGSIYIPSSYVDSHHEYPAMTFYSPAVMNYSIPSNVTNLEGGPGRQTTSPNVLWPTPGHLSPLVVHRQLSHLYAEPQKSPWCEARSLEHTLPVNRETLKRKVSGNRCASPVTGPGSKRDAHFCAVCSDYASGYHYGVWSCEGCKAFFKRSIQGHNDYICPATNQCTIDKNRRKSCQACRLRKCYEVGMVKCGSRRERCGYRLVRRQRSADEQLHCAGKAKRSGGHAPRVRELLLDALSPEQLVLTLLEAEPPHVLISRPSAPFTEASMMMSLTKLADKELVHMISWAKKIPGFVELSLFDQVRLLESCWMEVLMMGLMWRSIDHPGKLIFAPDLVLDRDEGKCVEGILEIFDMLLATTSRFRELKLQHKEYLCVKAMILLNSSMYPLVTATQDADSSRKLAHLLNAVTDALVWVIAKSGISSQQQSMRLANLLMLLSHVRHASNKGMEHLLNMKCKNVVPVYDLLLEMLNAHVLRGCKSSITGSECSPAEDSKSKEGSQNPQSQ
Chain of Sodium-dependent noradrenaline transporter (P23975 whole entry): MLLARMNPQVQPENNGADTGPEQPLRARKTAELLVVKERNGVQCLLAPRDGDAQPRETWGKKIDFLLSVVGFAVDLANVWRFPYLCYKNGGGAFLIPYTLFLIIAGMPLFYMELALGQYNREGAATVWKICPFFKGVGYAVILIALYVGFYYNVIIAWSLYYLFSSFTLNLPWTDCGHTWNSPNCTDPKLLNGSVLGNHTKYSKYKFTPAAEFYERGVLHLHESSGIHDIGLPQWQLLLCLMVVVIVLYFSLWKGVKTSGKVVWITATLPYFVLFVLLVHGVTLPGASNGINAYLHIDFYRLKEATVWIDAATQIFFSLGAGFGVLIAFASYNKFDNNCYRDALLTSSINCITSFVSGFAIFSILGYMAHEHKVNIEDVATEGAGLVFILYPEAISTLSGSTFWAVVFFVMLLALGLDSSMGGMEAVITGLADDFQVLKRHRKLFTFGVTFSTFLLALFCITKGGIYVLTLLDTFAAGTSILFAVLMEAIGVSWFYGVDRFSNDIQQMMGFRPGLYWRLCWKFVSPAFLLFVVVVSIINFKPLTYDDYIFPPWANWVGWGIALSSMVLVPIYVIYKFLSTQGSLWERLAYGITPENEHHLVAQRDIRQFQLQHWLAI

Turning to `COP(=O)(OC)OC=C(Cl)Cl` [DICHLORVOS], the IC50 result (in series [1]; in series [2]; on Estrogen receptor beta; against Vasopressin V1a receptor; in series [3]; in series [4] (mdck)) was “Not Active” in each case. Moreover, the 50% inhibitory concentration (IC50) result (against Cytochrome P450 2D6; in series [5]) was “Not Active” in each case. Further, the Ki entry (in series [2]; at Cytochrome P450 2D6) was “Not Active” each time.
With `O=C(O)Cc1ccccc1Nc1c(Cl)cccc1Cl` [DICLOFENAC], the concentration for half-maximal inhibition (IC50) entry (in series [1]; in series [2]; on Estrogen receptor beta; on Vasopressin V1a receptor; in series [3]; in series [4] (mdck)) was “Not Active” each time. The IC50 entry (against Cytochrome P450 2D6; in series [5]) was “Not Active” in each case. Further, the inhibitory constant (Ki) entry (in series [2]; on Cytochrome P450 2D6) was “Not Active” each time.
Regarding `C[C@H]1O[C@@H](O[C@H]2[C@@H](O)C[C@H](O[C@H]3[C@@H](O)C[C@H](O[C@H]4CC[C@@]5(C)[C@H](CC[C@@H]6[C@@H]5CC[C@]5(C)[C@@H](C7=CC(=O)OC7)CC[C@]65O)C4)O[C@@H]3C)O[C@@H]2C)C[C@H](O)[C@@H]1O` [DIGITOXIN], the half-inhibitory concentration (IC50) entry (in series [1]; in series [2]; against Estrogen receptor beta; against Vasopressin V1a receptor; in series [3]; in series [4] (mdck)) was “Not Active” throughout. In addition, the IC50 entry (on Cytochrome P450 2D6; in series [5]) was “Not Active” throughout. Moreover, the Ki result (in series [2]; on Cytochrome P450 2D6) was “Not Active” throughout.
In the case of `Cn1c(=O)c2c(ncn2CC2OCCO2)n(C)c1=O` [DOXOFYLLINE], the IC50 result (in series [1]; in series [2]; on Estrogen receptor beta; against Vasopressin V1a receptor; in series [3]; in series [4] (mdck)) was “Not Active” in each case. The IC50 entry (against Cytochrome P450 2D6; in series [5]) was “Not Active” in each case. Besides, the Ki result (in series [2]; at Cytochrome P450 2D6) was “Not Active” in each case.
Regarding `COc1cccc2c1C(=O)c1c(O)c3c(c(O)c1C2=O)C[C@@](O)(C(=O)CO)C[C@@H]3O[C@H]1C[C@H](N)[C@H](O)[C@H](C)O1` [DOXORUBICIN], the IC50 entry (in series [1]; in series [2]; on Estrogen receptor beta; at Vasopressin V1a receptor; in series [3]; in series [4] (mdck)) was “Not Active” in each case. In addition, the IC50 result (on Cytochrome P450 2D6; in series [5]) was “Not Active” each time. Further, the Ki result (in series [2]; on Cytochrome P450 2D6) was “Not Active” each time.
With `COc1cccc2c1C(=O)c1c(O)c3c(c(O)c1C2=O)C[C@@](O)(C(=O)CO)C[C@@H]3O[C@H]1C[C@H](N)[C@@H](O)[C@H](C)O1` [EPIRUBICIN], the IC50 entry (in series [1]; in series [2]; against Estrogen receptor beta; at Vasopressin V1a receptor; in series [3]; in series [4] (mdck)) was “Not Active” throughout. Moreover, the IC50 result (at Cytochrome P450 2D6; in series [5]) was “Not Active” each time. Also, the inhibition constant (Ki) entry (in series [2]; on Cytochrome P450 2D6) was “Not Active” each time.
As for `C[C@]12CC[C@@H]3c4ccc(OC(=O)c5ccccc5)cc4CC[C@H]3[C@@H]1CC[C@@H]2O` [ESTRADIOL BENZOATE], the IC50 result in series [1] is “Not Active”; in series [2] it was “Not Active”; against Estrogen receptor beta, “Not Active”; on Vasopressin V1a receptor it was “Not Active”; in series [3], “Not Active”; in series [4] (read-out: IC50) it was 17.2 µM. Also, the IC50 result (on Cytochrome P450 2D6; in series [5]) was “Not Active” in each case. Moreover, the Ki result in series [2] is “Not Active”; in series [4] (read-out: Ki) it was 17.1 µM; on Cytochrome P450 2D6, “Not Active”.
Take `CC[C@@H](CO)NCCN[C@@H](CC)CO` [ETHAMBUTOL]: the IC50 result (in series [1]; in series [2]; at Estrogen receptor beta; against Vasopressin V1a receptor; in series [3]; in series [4] (mdck)) was “Not Active” each time. Besides, the IC50 result (against Cytochrome P450 2D6; in series [5]) was “Not Active” each time. Further, the Ki entry (in series [2]; at Cytochrome P450 2D6) was “Not Active” in each case.
For `CC1(C)O[C@@H]2C[C@H]3[C@@H]4C[C@H](F)C5=CC(=O)C=C[C@]5(C)[C@H]4[C@@H](O)C[C@]3(C)[C@]2(C(=O)CO)O1` [FLUNISOLIDE], the IC50 result (in series [1]; in series [2]; against Estrogen receptor beta; on Vasopressin V1a receptor; in series [3]; in series [4] (mdck)) was “Not Active” each time. In addition, the half-maximal inhibitory concentration (IC50) result (on Cytochrome P450 2D6; in series [5]) was “Not Active” in each case. The Ki entry (in series [2]; at Cytochrome P450 2D6) was “Not Active” throughout.
As for `CC1(C)O[C@@H]2C[C@H]3[C@@H]4C[C@H](F)C5=CC(=O)CC[C@]5(C)[C@H]4[C@@H](O)C[C@]3(C)[C@]2(C(=O)CO)O1` [FLURANDRENOLIDE], the half-inhibitory concentration (IC50) result (in series [1]; in series [2]; at Estrogen receptor beta; at Vasopressin V1a receptor; in series [3]; in series [4] (mdck)) was “Not Active” in each case. Also, the concentration for half-maximal inhibition (IC50) result (on Cytochrome P450 2D6; in series [5]) was “Not Active” in each case. Moreover, the inhibition constant (Ki) entry (in series [2]; on Cytochrome P450 2D6) was “Not Active” in each case.
For the compound `CC(C)Cc1ccc(C(C)C(=O)O)cc1` (stereo unspecified) [IBUPROFEN], the concentration for half-maximal inhibition (IC50) entry (in series [1]; in series [2]; against Estrogen receptor beta; against Vasopressin V1a receptor; in series [3]; in series [4] (mdck)) was “Not Active” in each case. In addition, the IC50 result (on Cytochrome P450 2D6; in series [5]) was “Not Active” throughout. The Ki result (in series [2]; on Cytochrome P450 2D6) was “Not Active” in each case.
Consider `CCc1c2c(nc3ccc(OC(=O)N4CCC(N5CCCCC5)CC4)cc13)-c1cc3c(c(=O)n1C2)COC(=O)[C@]3(O)CC` [IRINOTECAN], for which the 50% inhibitory concentration (IC50) result (in series [1]; in series [2]; against Estrogen receptor beta; at Vasopressin V1a receptor; in series [3]; in series [4] (mdck)) was “Not Active” each time. For the same compound, the half-maximal inhibitory concentration (IC50) result (against Cytochrome P450 2D6; in series [5]) was “Not Active” in each case. Also, the inhibition constant Ki entry (in series [2]; at Cytochrome P450 2D6) was “Not Active” in each case.
As to `CC(C(=O)O)c1cccc(C(=O)c2ccccc2)c1` (stereo unspecified) [KETOPROFEN], the half-maximal inhibitory concentration (IC50) entry (in series [1]; in series [2]; at Estrogen receptor beta; at Vasopressin V1a receptor; in series [3]; in series [4] (mdck)) was “Not Active” throughout. For the same compound, the IC50 entry (at Cytochrome P450 2D6; in series [5]) was “Not Active” in each case. Besides, the Ki result (in series [2]; on Cytochrome P450 2D6) was “Not Active” throughout.
Take `Nc1ccn([C@@H]2CS[C@H](CO)O2)c(=O)n1` [LAMIVUDINE]: the IC50 result (in series [1]; in series [2]; on Estrogen receptor beta; at Vasopressin V1a receptor; in series [3]; in series [4] (mdck)) was “Not Active” throughout. The concentration for half-maximal inhibition (IC50) result (against Cytochrome P450 2D6; in series [5]) was “Not Active” in each case. The inhibitory constant (Ki) result (in series [2]; at Cytochrome P450 2D6) was “Not Active” each time.
Regarding `O=S(=O)([O-])CCS.[Na+]` [MESNA], the IC50 result (in series [1]; in series [2]; at Estrogen receptor beta; on Vasopressin V1a receptor; in series [3]; in series [4] (mdck)) was “Not Active” throughout. Besides, the IC50 entry (at Cytochrome P450 2D6; in series [5]) was “Not Active” each time. The Ki result (in series [2]; at Cytochrome P450 2D6) was “Not Active” each time.
Turning to `CC(=O)Nc1cccc(O)c1` [METACETAMOL], the half-maximal inhibitory concentration (IC50) result (in series [1]; in series [2]; at Estrogen receptor beta; against Vasopressin V1a receptor; in series [3]; in series [4] (mdck)) was “Not Active” throughout. The IC50 result (on Cytochrome P450 2D6; in series [5]) was “Not Active” throughout. The inhibitory constant (Ki) entry (in series [2]; on Cytochrome P450 2D6) was “Not Active” in each case.

A word on the IC50: it is the point on the concentration scale where inhibition reaches its midpoint. Usually Ki stands for the dissociation constant of the complex between target and ligand, obtained from inhibition or displacement.
